In paper PMC3504108 (PLoS ONE, 2012):

Experiments:
[1] = biological target: T1, Sirt5 (Homo sapiens, UniProt Q9NXA8); experiment: FdL1 fluorogenic deacetylation assay (activation dose-response); type: biochemical
T1 construct: catalytic core, residues 34–302
T1 sequence (Q9NXA8 34-302): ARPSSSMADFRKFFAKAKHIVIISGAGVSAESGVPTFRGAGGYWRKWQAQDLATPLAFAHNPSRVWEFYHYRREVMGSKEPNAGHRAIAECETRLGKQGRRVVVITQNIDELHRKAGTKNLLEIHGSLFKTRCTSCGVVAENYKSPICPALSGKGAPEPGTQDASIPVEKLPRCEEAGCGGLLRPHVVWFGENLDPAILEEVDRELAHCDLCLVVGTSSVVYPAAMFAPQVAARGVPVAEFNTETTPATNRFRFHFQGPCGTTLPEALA

[2] = biological target: T2, Sirt3 (Homo sapiens, UniProt Q9NTG7); experiment: X-ray crystal structure ([…] Å, ternary with FdL1 peptide), plus FdL2 deacetylation inhibition; type: binding
T2 construct: catalytic core, residues 118–399
T2 sequence (Q9NTG7 118-399): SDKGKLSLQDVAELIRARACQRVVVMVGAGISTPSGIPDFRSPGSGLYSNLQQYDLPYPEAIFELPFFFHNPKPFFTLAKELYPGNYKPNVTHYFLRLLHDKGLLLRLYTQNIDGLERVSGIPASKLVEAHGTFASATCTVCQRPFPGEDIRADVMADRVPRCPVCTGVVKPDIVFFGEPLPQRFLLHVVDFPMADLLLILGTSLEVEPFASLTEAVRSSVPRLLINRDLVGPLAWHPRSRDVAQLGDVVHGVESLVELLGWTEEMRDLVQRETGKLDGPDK

[3] = biological target: T1, Sirt5; experiment: Cytochrome c deacetylation ELISA (activation, Figure S3A); type: biochemical
[4] = biological target: T3, Sirt3 (Homo sapiens, UniProt Q9NTG7); experiment: ELISA-based deacetylation assay (Figure S3B); type: biochemical
T3 sequence (Q9NTG7 102-399): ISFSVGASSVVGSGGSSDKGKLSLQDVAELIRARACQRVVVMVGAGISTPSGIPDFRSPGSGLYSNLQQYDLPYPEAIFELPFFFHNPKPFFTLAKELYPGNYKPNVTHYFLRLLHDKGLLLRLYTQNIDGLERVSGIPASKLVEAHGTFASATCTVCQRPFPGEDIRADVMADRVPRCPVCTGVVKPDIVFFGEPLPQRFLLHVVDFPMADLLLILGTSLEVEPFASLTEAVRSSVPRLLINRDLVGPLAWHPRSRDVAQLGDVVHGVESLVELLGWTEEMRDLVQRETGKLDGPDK

[5] = biological target: T1, Sirt5; experiment: ELISA-based deacetylation assay (weak inhibition, Figure S3B); type: biochemical
[6] = biological target: T1, Sirt5; experiment: X-ray crystal structure ([…] Å, ternary with FdL1 peptide; ligand occupancy […]), plus deacetylase activation assays; type: binding

## Oc1cc(O)cc(/C=C/c2ccc(O)c(O)c2)c1 [piceatannol]
[1]
  EC50: 70 ± 20 µM
[2]
  X-ray crystal structure (2.3 Å, ternary with FdL1 peptide), plus FdL2 deacetylat: we also solved the crystal structure of Sirt3 in complex with FdL1-peptide and piceatannol

## OCCc1ccc(O)cc1 [tyrosol, 4-(2-hydroxyethyl)phenol]
[3]
  Cytochrome c deacetylation ELISA (activation, Figure S3A): activates Sirt5 in a Cytochrome c deacetylation assay (see below, Figure S3A)

## O=c1c(O)c(-c2ccc(O)c(O)c2)oc2cc(O)ccc12 [fisetin]
[4]
  ELISA-based deacetylation assay (Figure S3B): only fisetin shows a weak inhibitory effect on Sirt5 and significant inhibition of Sirt3 in an ELISA-based deacetylation assay
[5]
  ELISA-based deacetylation assay (weak inhibition, Figure S3B): only fisetin shows a weak inhibitory effect on Sirt5

## Oc1ccc(/C=C/c2cc(O)cc(O)c2)cc1 [resveratrol]
[6]
  X-ray crystal structure (2.6 Å, ternary with FdL1 peptide); ligand occupancy ~50%: Co-ordinates and structure factors of Sirt5 in complex with FdL1-peptide and resveratrol
